Source: patent US20210381022A1, “INTEGRATED DRUG DISCOVERY PLATFORM FOR INBORN ERROR OF METABOLISM DISORDERS” (RAMOT AT TEL-AVIV UNIVERSITY LTD., priority 2018, published 2021)

How the values were obtained:
[1] = test system: adenosine aggregates in ADA deficient LCLs; assay: Aggregation assay (Proteostat, FACS) on ADA deficient LCLs; type: cell-based, human; conditions: patient derived lymphoblastoids, adenosine, 19 concentrations from 50 μM to 0.003 μM
Procedure: 24 hours after seeding in full medium cells were washed with medium without serum and placed in medium without serum. Following 72 hours of incubation with or without Adenosine (A9251 SIGMA) (200 ug/ml), cells were washed with PBS and stained for adenosine aggregates with Proteostat dye (ENZ-51023-KP002). Proteostat concentration was 1:3000 of diluted stock. Following 15 minutes' incubation, cells were washed with PBS and mean fluorescence was measured with FACS.
Cells were treated with adenosine alone or with adenosine with compounds. Compound activity was tested in 19 concentrations in range from 50 uM to 0.003 uM.
Readouts: Proteostat Fluorescence intensity was measured with FACS at 2 excitation wavelengths: 488 nm and 550 nm. Emission wavelength was 600 nm.
24 hours after seeding in 96 round bottom plates in full medium cells were washed once with medium without serum and placed in medium without serum. Following 72 hours of incubation with or without Adenosine (200 ug/ml) and with or without purpurin (2 uM), cells were washed once with PBS and stained for adenosine aggregates with Proteostat dye (Enzo Life Sciences). Proteostat concentration was 1:4000 of diluted stock. Following 15 minutes incubation, cells were washed with PBS and mean flow cytometry was preformed using Stratedigm S1000EXi and the CellCapTure software (Stratedigm, San Jose, Calif.). Analyses were performed using FlowJo software (TreeStar, version 10).
For quantification of intracellular adenosine aggregates by FACS analyses, 100,000 cells were seeded in 96 well plates in full medium. After 24 hours, cells were centrifuged, washed once and added with serum free medium with or without Adenosine (200 μg/ml). After incubation of 72 hours cells were washed with PBS and stained for adenosine aggregates with Proteostat dye. Following 15 minutes incubation, cells were washed with PBS and mean fluorescence was measured with FACS. Mean cell fluorescence of every cell line was normalized to its signal without adenosine and data is presented as percentage of aggregates.

adenine fibrils = assay: ThT assay of adenine self-assembly inhibition in vitro; conditions: for amyloids staining (ThT, end point): adenine 8 mg/ml in PBS with inhibitor
Procedure: Adenine was dissolved at 90° C. in PBS to a final concentration of 8 mg/ml and mixed with the indicated inhibitor, at the indicated concentrations, or with PBS as a control, followed by addition of ThT in PBS. ThT emission data at 480 nm (excitation at 450 nm) were measured at the end point.
Adenine was dissolved to a final concentration of 8 mg/ml at 90° C. in PBS. The solution was plated on a 96-well black plate and mixed with the inhibitor baicalein at the stated concentration, and with 20 μm ThT (final concentration). Fluorescence (excitation at 450 nm, emission at 480 nm) was recorded over time using a Tecan™ Infinite® 200 PRO plate reader. Data processing was performed using the OriginLab software.
To further examine if the compounds specifically target the adenosine amyloid-like structures. the compounds were tested using adenine in-vitro aggregation assay. Adenine was self-assembled with and without the inhibitors and stained with the amyloids dye, Thioflavin T (ThT). […] More specifically. Adenosine (30 mg/mL) and guanosine (3 mg/ml) were dissolved in PBS at 90° C., followed by the addition of ThT at final concentration of 20 μM. ThT emission data at 480 nm (excitation at 450 nm) was measured over time. TEM images show elongated adenosine fibrils (10 mg/mL) and guanosine fibrils (1 mg/mL) (FIGS. 34A and 34B, respectively). ThT fluorescence assay of adenosine and guanosine assemblies, are shown by FIGS. 34C, and 34D respectively.

GABAA receptor = conditions: general description; cited from earlier work
cys4Δ strain = assay: Yeast growth assay of cys4Δ mutant with homocysteine; type: cell-based, Saccharomyces cerevisiae; conditions: compared to the wild-type strain, 20, 40, 80 mg/L
Procedure: FIG. 27E: WT and cys4Δ strains diluted to OD600 0.01 were grown in SD media containing 13 mg/L cysteine and 80 mg/L homocysteine in the under the indicated conditions. 0.3 mM TA was added to the samples at different OD600. The percentage of growth represents the growth the indicated condition compared to the growth of WT without TA. *P<0.05 (Student's t-test).
Homocystinuria results from cystathionine beta synthase (CBS) deficiency, leading to excess of Hcy. A knockout mutation in CYS4, the highly-conserved functional yeast ortholog of the human cystathionine beta synthase (CBS) known to be essential for Hcy salvage, was therefore generated. Due to the contribution of this enzyme to cysteine biosynthesis, it was first shown that its absence confers cysteine dependence (FIG. 27A). […] To examine whether the observed toxicity was associated with the in vivo formation of amyloid-like assemblies, the cells were stained with the amyloid-specific fluorescent dye ProteoStat which allows to detect intracellular amyloid fibrils. […] Next, to further establish the amyloid-like nature of the aggregates, the fibrillation-modifying polyphenolic compound tannic acid (TA) was used (FIG. 27E).

phenylalanine assemblies = conditions: reference [4]; cited from earlier work
[2] = test system: RB857 (PAH-1 mutant) and N2 (WT) worms; assay: C. elegans model for PKU; type: in vivo, Caenorhabditis elegans; conditions: 100 mM phenylalanine in minimal media, Baicalein added
Procedure: (§1) Wild-type N2, RB857 and NL2099 worms were obtained from the Caenorhabditis Genetics Center. RNAi clones was obtained from the Ahringer RNAi library as previously described [Fisher A L, et al., J. Biol. Chem. 283: 9127-9135(2008)]. Worms were grown on NGM media without peptone and the metabolites were added into a boiling media. Baicalein and EGCG were added to a media after cooled down to 45 degrees.
To study PKU in C. elegans model, a strain was used with mutation in the PAH-1 gene (RB857)]. […] Next, the effect of one of the previously identified hits i.e. baicalein was examined on the development of worms. The life cycle of C. elegans is comprised of the embryonic stage, four larval stages (L1-L4) and adulthood. The end of each larval stage is marked with a molt, during which a new, stage-specific cuticle is synthesized and the old one is shed.

CYP2C9 = CYP2C9 (Homo sapiens, UniProt P11712); conditions: general description; cited from earlier work
aah1Δapt1Δ strain = assay: Yeast growth assay of adenine salvage mutant with adenine feeding; type: cell-based, Saccharomyces cerevisiae
Procedure: (§2) Strains were grown over night at 30° C. in SD medium without adenine. For spotting assays, strains were diluted to 6.25*10^7 cells/mL and were then 5-fold serially diluted and spotted on SD media with the indicated concentrations of adenine or TA (Sigma-Aldrich). Plates were incubated at 30° C. for 2 days. […] For OD600 measurements, strains were diluted to OD600 0.01, 200 μL of cells were platted on 96 wells plates and incubated at 30° C. for 25 hours with continuous shaking. OD600 was measured using Tecan™ SPARK 10M plate reader.
For the percentage of growth analysis (FIG. 10B and FIG. 13A), OD600 was measured when cells reached log phase. The percentage of growth represents the growth with TA compared to the growth without TA.

lipoxygenases = conditions: general description; cited from earlier work
estrogen receptor = estrogen receptor (Homo sapiens, UniProt P03372); conditions: general description; cited from earlier work
fah-1 RNAi treated worms = assay: C. elegans model for Tyrosinemia (fah-1 RNAi); type: in vivo, Caenorhabditis elegans; conditions: tyrosine added to fah-1 silenced worms
Procedure: as §1
Mutations in different enzymes that are involved in the tyrosine degradation pathway are responsible for different types of Tyrosinemia. The tyrosine degradation pathway in mammals and C. elegans in conserved and the most severe is type I Tyrosinemia, which is caused by mutations affecting the last enzyme in the pathway, fumarylacetoacetate hydrolase (FAH). To study Tyrosinemia in C. elegans model, an RNAi was used that specifically silences the fumarylacetoacetate hydrolase (fah-1), as was previously reported (K10C4.2). RNAi directed against fah-1 causes severe phenotype of reduced size, impaired fertility and reduction of total number of viable worms (FIG. 32).

aro3Δ mutant = assay: Yeast growth assay of aro3Δ mutant with tyrosine feeding; type: cell-based, Saccharomyces cerevisiae; conditions: 4a.a SD medium with tyrosine
Procedure: as §2
The focus was put on a strain with a deletion of the ARO3 gene in which a significant decrease in cellular growth was observed upon tyrosine feeding (see FIG. 21). The inventors aimed to determine whether the toxic effect was influenced by different levels of tyrosine. Thus, the cellular growth of wild-type and the aro3Δ mutant was examined by serial dilutions on selective plates that were supplemented with different concentrations of tyrosine (FIG. 21A). In addition, cellular growth was also examined by measuring the turbidity of the medium upon addition of the indicated concentration of tyrosine (FIG. 21B). […] Thus, cell growth is affected by tyrosine levels in a dose-dependent manner which further supports the notion that the toxicity in the aro3Δ mutant results from the presence of tyrosine.
In order to examine the effect of EGCG on cell growth, the aro3Δ mutant was spotted on 4a.a SD plates that contained tyrosine alone or tyrosine with different concentrations of EGCG. […] Thus, the lag phase in the presence of EGCG was nearly the same as cells unexposed to tyrosine, indicating the potent ability of EGCG to eliminate the tyrosine sensitivity of the aro3Δ mutant. […] Next, the inventors aimed to gain additional insights into the effect of EGCG on the amyloid-like fibrils formed by the accumulation of tyrosine in the aro3Δ mutant cells. For that purpose, cells were stained with the amyloid-specific dye ProteoStat®, and FACS was applied to detect tyrosine aggregates. […] (FIG. 25).

Sequence of estrogen receptor (P03372 whole entry, species assumed): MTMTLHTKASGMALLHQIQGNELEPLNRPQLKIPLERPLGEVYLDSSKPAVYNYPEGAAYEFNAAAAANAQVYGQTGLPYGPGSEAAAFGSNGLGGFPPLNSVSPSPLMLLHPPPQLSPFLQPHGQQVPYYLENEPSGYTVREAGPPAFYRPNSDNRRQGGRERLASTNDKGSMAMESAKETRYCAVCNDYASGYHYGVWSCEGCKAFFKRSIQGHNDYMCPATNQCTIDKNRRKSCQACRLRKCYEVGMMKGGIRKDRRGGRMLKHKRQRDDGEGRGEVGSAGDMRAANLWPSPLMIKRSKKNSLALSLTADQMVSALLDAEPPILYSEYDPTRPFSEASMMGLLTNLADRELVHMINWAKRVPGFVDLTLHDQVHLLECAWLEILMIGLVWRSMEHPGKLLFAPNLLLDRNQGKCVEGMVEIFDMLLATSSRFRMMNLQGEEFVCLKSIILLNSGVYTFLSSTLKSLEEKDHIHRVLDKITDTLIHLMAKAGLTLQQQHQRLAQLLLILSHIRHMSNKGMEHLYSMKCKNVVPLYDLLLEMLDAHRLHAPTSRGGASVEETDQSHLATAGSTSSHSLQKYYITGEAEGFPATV
Sequence of CYP2C9 (P11712 whole entry): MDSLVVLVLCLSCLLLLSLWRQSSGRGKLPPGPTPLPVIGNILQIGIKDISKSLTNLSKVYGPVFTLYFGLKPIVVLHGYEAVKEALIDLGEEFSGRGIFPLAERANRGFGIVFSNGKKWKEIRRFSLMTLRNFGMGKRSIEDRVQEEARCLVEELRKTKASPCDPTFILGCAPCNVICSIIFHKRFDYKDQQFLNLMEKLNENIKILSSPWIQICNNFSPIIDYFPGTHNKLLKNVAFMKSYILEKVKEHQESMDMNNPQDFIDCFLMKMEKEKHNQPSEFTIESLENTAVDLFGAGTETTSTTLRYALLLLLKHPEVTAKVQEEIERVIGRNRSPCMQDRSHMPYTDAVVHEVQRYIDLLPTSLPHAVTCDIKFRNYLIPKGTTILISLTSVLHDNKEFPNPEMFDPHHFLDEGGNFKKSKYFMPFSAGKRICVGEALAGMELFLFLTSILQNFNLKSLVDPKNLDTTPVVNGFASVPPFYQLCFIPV

With O=C1c2ccc(O)c(O)c2C(=O)c2c(O)ccc(O)c21 [Quinalizarin, 1,2,5,8-Tetrahydroxyanthracene-9,10-dione] the “formation of adenosine aggregates (aggregation level, Proteostat staining)” value (from here on “formation of adenosine aggregates”) [1] was “significantly reduce the aggregation level”, the “formation of adenosine aggregates” value ([1]; listed as quinalizarin) was “inhibited the formation of these aggregates” and the “amyloids staining (ThT, end point)” value (adenine fibrils) was “significantly reduced the amyloids staining”.

In the case of O=C1c2ccccc2C(=O)c2c1ccc(O)c2O [Alizarin, 1,2-Dihydroxyanthracene-9,10-dione], the “formation of adenosine aggregates” value [1] is reported as “significantly reduce the aggregation level” and the “formation of adenosine aggregates” value ([1]; listed as alizarin) is reported as “inhibited the formation of these aggregates”.

For O=C(O)[C@H]1O[C@@H](Oc2cc3oc(-c4ccccc4)cc(=O)c3c(O)c2O)[C@H](O)[C@@H](O)[C@@H]1O [baicalin, reference compound], the “modulation of the benzodiazepine site and/or a non-benzodiazepine site of the GABAA receptor” value (GABAA receptor) is given as “positive allosteric modulator”.

For N[C@@H](CCS)C(=O)O [Hcy, homocysteine], the “growth of CYS4 mutant with Hcy in the growth medium” value (cys4Δ strain) was “sensitivity”.

For C[C@H]1c2cccc(O)c2C(=O)C2=C(O)[C@]3(O)C(=O)C(C(N)=O)=C(O)[C@@H](N(C)C)[C@@H]3[C@@H](O)[C@@H]21 [doxycycline], the “phenylalanine aggregation and cytotoxicity of the assemblies in vitro” value (phenylalanine assemblies) is listed as “counteract”.

For O=c1cc(-c2ccccc2)oc2cc(O)c(O)c(O)c12 [Baicalein, 5,6,7-Trihydroxy-2-phenyl-chromen-4-one], the “formation of adenosine aggregates” value [1] was “significantly reduce the aggregation level”, the “formation of adenosine aggregates” value ([1]; listed as baicalein) was “inhibited the formation of these aggregates” and the “total number of worms” value ([2]; N2 and RB857) was “beneficial effect on both strains”. For the same compound, the “development of worms (reaching adulthood)” value ([2]; RB857 and WT) was “dramatic beneficial effect on both strains”, the “adenine self-assembly in vitro (ThT fluorescence over time)” value (adenine fibrils; 8 mg/ml adenine, baicalein 5, 10, 100, 500 μM) was “dose-dependent inhibition of adenine self-assembly in vitro” and the “amyloids staining (ThT, end point)” value (adenine fibrils) was “significantly reduced the amyloids staining”. The “modulation of the benzodiazepine site and/or a non-benzodiazepine site of the GABAA receptor” value (GABAA receptor) was “positive allosteric modulator”, the “inhibition of CYP2C9” value (CYP2C9) was “inhibitor” and the yeast cell growth (aah1Δapt1Δ strain; 2 mg/L adenine, baicalein 2.5, 5, 10 μM) was “significant effect on yeast cell growth”. The “inhibition of certain types of lipoxygenases” value (lipoxygenases) was “inhibit” and the “activity at the estrogen receptor” value (estrogen receptor) was “antagonist”.

With Nc1ncnc2nc[nH]c12 [adenine, Adenine] the “cell growth with increasing adenine levels in the medium” value (aah1Δapt1Δ strain; SD medium, adenine up to 40 mg/L) was “decreased cell growth in a dose-dependent manner”.

With N[C@@H](Cc1ccc(O)cc1)C(=O)O [tyrosine] the “size, fertility and total number of viable worms” value (fah-1 RNAi treated worms) was “severe decline in all the observed phenotypes” and the “growth of aro3Δ mutant with increasing tyrosine concentration” value (aro3Δ mutant) was “increase of growth inhibition”.
